Experimental data published in the supplement of paper PMC11208160.

Assay: recombinant barcode read abundance after kanamycin selection (control-corrected) (log10(CPM+1)); higher = more efficient recombination; sequences stand for … in AGTGCAGAGAAAATCGGCCAGTTTTCTCTGCCTGCAGTCCGCATGCCGT…AGATTTATGCAGCGGACTGCCTTTCTCCCAAAGTGATAAACCGGACAGTATCATGGACCGGTTTTCCCGGTAATCCGTATTTGCAAGGTTGGTTTCACT; site = the 11-nt target
Procedure, shortened: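 IS621 bridge RNA target-binding loops were paired with targets in a pooled library tested in E. coli. After co-electroporation with a donor plasmid, cells were plated in two replicates on chloramphenicol/ampicillin LB agar (control) and on chloramphenicol/ampicillin/kanamycin carrying 0.1 mM IPTG. Barcodes at recombinant junctions were counted as counts per million, averaged and control-corrected to give recombination efficiency. Values are log10(CPM+1).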
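Note: IS621 recombinase and bridge RNA in Escherichia coli cells.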

Sequence	recombinant barcode read abundance (log10)
CTGTGCACTTGGGTTCTAACCTGTTGCCG (site ATGTGCACTCT)	0.053
CTGTGCACTTGGGTTCTAACCTGTTGCCG (site CTGTGCACTCG)	0.197
CTGTGTCCTTGGGTTCTAACCTGTTGCGG (site CTGTGTCCTCC)	1.84
CTGTGTCCTTGGGTTCTAACCTGTTGCGG (site TCAGCCTCTAG)	0.214
CTTAACACTTGGGTTCTAACCTGTTGCCG (site CTTAACACTCG)	0.683
CTTAACACTTGGGTTCTAACCTGTTGCCG (site TCATGACCTAT)	0.0383
CTTACGACTTGGGTTCTAACCTGTTGCCT (site CTTACGACTAG)	0.695
CTTACGACTTGGGTTCTAACCTGTTGCCT (site GTTACAACTAG)	0.355
CTTACTACTTGGGTTCTAACCTGTTGCCA (site CTTACTACTTG)	0.0598
CTTACTACTTGGGTTCTAACCTGTTGCCA (site TCCGGCGCTCC)	0.0182
CTTACTGCTTGGGTTCTAACCTGTTGCCT (site CTTACAGCTAG)	0.775
CTTACTGCTTGGGTTCTAACCTGTTGCCT (site CTTACCGCTAG)	0.291
CTTACTGCTTGGGTTCTAACCTGTTGCCT (site CTTACGGCTAG)	0.295
CTTACTGCTTGGGTTCTAACCTGTTGCCT (site CTTACTGCTAG)	0.183
CTTAGGGCTTGGGTTCTAACCTGTTGCCT (site CTTAGGGCTAG)	0.419
CTTAGGGCTTGGGTTCTAACCTGTTGCCT (site CTTTGTGCTAG)	0.012

Sequence	recombinant barcode read abundance (log10)
CTTAGGGCTTGGGTTCTAACCTGTTGCGG (site CTAAGGGCTCC)	2.14
CTTAGGGCTTGGGTTCTAACCTGTTGCGG (site CTTAGGGCTCC)	3.02
CTTCAAGCTTGGGTTCTAACCTGTTGCCT (site CTACAAGCTAG)	1.17
CTTCAAGCTTGGGTTCTAACCTGTTGCCT (site CTCCAAGCTAG)	0.257
CTTCAAGCTTGGGTTCTAACCTGTTGCCT (site CTGCAAGCTAG)	0.197
CTTCAAGCTTGGGTTCTAACCTGTTGCCT (site CTTCAAGCTAG)	0.983
CTTCGAACTTGGGTTCTAACCTGTTGCAT (site ACATACCCTCA)	0.609
CTTCGAACTTGGGTTCTAACCTGTTGCAT (site CTTCGAACTAT)	0.407
CTTCGACCTTGGGTTCTAACCTGTTGCAT (site CTTCGACCTAT)	2.04
CTTCGACCTTGGGTTCTAACCTGTTGCAT (site CTTGGACCTCT)	0.0729
CTTCGAGCTTGGGTTCTAACCTGTTGCAG (site CTTCGAGCTCA)	0.172
CTTCGAGCTTGGGTTCTAACCTGTTGCAG (site CTTCGAGCTCC)	0.288
CTTCGAGCTTGGGTTCTAACCTGTTGCAG (site CTTCGAGCTCG)	0.168
CTTCGAGCTTGGGTTCTAACCTGTTGCAG (site CTTCGAGCTCT)	1.35
CTTCGCCCTTGGGTTCTAACCTGTTGCTT (site ACAGTGGCTCC)	0.0481
CTTCGCCCTTGGGTTCTAACCTGTTGCTT (site CTTCGCCCTAA)	0.109
